3 molecules from patent US11202751B2, “Whitening cosmetic composition comprising Caragana sinica root extract” (CELLTRION, INC., priority 2015, dated 2021) can be followed below.

pIC50: −log10 of the molar value.

Data set [1] relates to B16F1 melanin-forming cell. In words: Inhibition of α-MSH-induced melanin production in B16F1 cells. The conditions noted are these: for pIC50: B16F1, 70 to 74 hours. It is filed as cell-based, mouse. Here is the method:
Specifically, the B16F1 melanin-forming cells, as a mouse-derived cell line, were obtained from American Type Culture Collection (ATCC) to use. The B16F1 melanin-forming cells were divided into a 6-well plate at a concentration of 2×10^5 per well, after which the cells were attached thereto, thus being divided at such a concentration as not to cause toxicity. After that, the ethanol extract of Caragana Sinica root and the fraction thereof obtained from the above Examples 1 to 5 were treated at each concentration, and then being cultured for 72 hours. After this 72-hour cultivation, the cells were taken off by trypsin-EDTA, after which the number of cells was measured, and then cells were collected by centrifugation. A quantification of melanin in cells was performed in such a way that modifying method of Lotan (Cancer Res., 40: 3345-3350, 1980). A cell pallet was washed once with PBS, after which 1 ml of a homogenization buffer solution (50 mM sodium phosphate, pH6.8, 1% Triton X-100, 2 mM PMSF) was added thereto and swirled for 5 minutes to crush the cells. 1N NaOH (10% DMSO) was added to a cell lysate obtained through centrifugation (3,000 rpm, 10 minutes) so as to dissolve the extracted melanin, after which an absorbance of the melanin was measured by microplate reader at 405 nm, and the melanin was quantified to measure an inhibition rate of melanin production (%) of a sample. The inhibition rate of melanin production (%) of the B16F1 melanin-forming cell was calculated according to the following [Mathematical formula 2], wherein results thereof were indicated at Table 3.
In order to confirm whitening effect of α-viniferin isolated from the fraction of Caragana Sinica root of the above Example 4, its effect on inhibiting a production of melanin was confirmed with regard to a B16F1 melanin-forming cell.
Specifically, the α-viniferin isolated from the ethyl acetate fraction of the ethanol extract of Caragana Sinica root obtained from the above Example 4 or arbutin, and α-MSH, a stimulant of melanin production, were treated at the same time, after which an amount of melanin was measured in 70 to 74 hours later as describe in the above Example 2-2.

Data set [2] in a line: Stability of isolated α-viniferin at 50° C. (HPLC content). It is filed as physicochemical. Particulars: for content by HPLC / content relative to initial: 50° C. The procedure:
In order to confirm a stability of α-viniferin, the α-viniferin isolated from the ethyl acetate fraction of the ethanol extract of Caragana Sinica root obtained from the above Experimental Example 1 was stored under a condition of 50° C. for 2 weeks, after which content changes thereof were observed through an HPLC analysis by the same method of the above Experimental Example 1. A control group was kobophenol A isolated from the Caragana Sinica root extract, which was stored under the same condition with that of the α-viniferin, after which content changes thereof were observed by the same method.

Data set [3] deals with tyrosinase, isolated and refined from a mushroom. As to the kind of experiment: Tyrosinase activity inhibition (absorbance at 475 nm, L-tyrosine substrate). It is filed as biochemical. Here is the method: A tyrosinase is an enzyme that promotes an oxidization process of a substance called tyrosine in vivo to produce a melanin. […] After that, 0.5 ml of a resulting L-tyrosine solution was inserted into a test tube, after which 0.5 ml of a sample fluid of the above Caragana Sinica root extract and the fraction thereof was added thereto, such that the test tube of a resulting mixture was left alone in a 37° C. constant temperature chamber for 10 minutes. […] The reaction was stopped by placing the test tube containing that reaction solution on ice to be rapidly cooled down, after which an absorbance of the resulting product was measured with a spectrophotometer at a wavelength of 475 nm. Control group was one containing 0.5 ml of a buffer solution instead of the Caragana Sinica root extract, and the comparison target was arbutin, well-known as a skin whitening agent. At that time, an inhibition rate of tyrosinase activity (%) was calculated according to the following Mathematical formula 1, wherein results thereof were shown in the following Table 2. [formula] [formula]

The subject of data set [4] is B16F1 melanin-forming cell. In words: Melanin production inhibition in B16F1 melanin-forming cells. Particulars: Mus musculus, B16-F1, 72 hours, read-out: Inhibition rate of melanin production (%). The format is cell-based. The source says:
In order to confirm a whitening effect of the ethanol extract of Caragana Sinica root and the fraction thereof prepared in the above Examples 1 to 5, its effect on inhibiting a production of melanin was confirmed with regard to a B16F1 melanin-forming cell.
Specifically, the B16F1 melanin-forming cells, as a mouse-derived cell line, were obtained from American Type Culture Collection (ATCC) to use. The B16F1 melanin-forming cells were divided into a 6-well plate at a concentration of 2×10^5 per well, after which the cells were attached thereto, thus being divided at such a concentration as not to cause toxicity. […] After this 72-hour cultivation, the cells were taken off by trypsin-EDTA, after which the number of cells was measured, and then cells were collected by centrifugation. A quantification of melanin in cells was performed in such a way that modifying method of Lotan (Cancer Res., 40: 3345-3350, 1980). […] 1N NaOH (10% DMSO) was added to a cell lysate obtained through centrifugation (3,000 rpm, 10 minutes) so as to dissolve the extracted melanin, after which an absorbance of the melanin was measured by microplate reader at 405 nm, and the melanin was quantified to measure an inhibition rate of melanin production (%) of a sample. […]

Consider `Oc1ccc(C2Oc3cc(O)cc4c3[C@@H]2c2cc(O)cc3c2C(c2cc(O)cc5c2[C@@H]4[C@H](c2ccc(O)cc2)O5)[C@H](c2ccc(O)cc2)O3)cc1` (stereo partly drawn) [α-viniferin], for which the inhibition at 4 µM in data set [1] (Mus musculus, B16-F1, 4 μM, read-out: inhibition rate of melanin production induced by α-MSH) was determined as 8%. Moreover, the inhibition at 6 µM in data set [1] (Mus musculus, B16-F1, 6 μM, read-out: inhibition rate of melanin production induced by α-MSH) was 21%. For the same molecule, the inhibition at 8 µM in data set [1] (Mus musculus, B16-F1, 8 μM, read-out: inhibition rate of melanin production induced by α-MSH) is 63%. Further, the pIC50 in data set [1] (Mus musculus, B16-F1) is 5.15. In data set [1] (ratio of IC50 values vs arbutin), the “whitening effect on α-MSH-induced melanin production, times higher than that of arbutin” value is listed as “about 35 times”. Also, in data set [2] (50° C. for 2 weeks), the “content change at high temperature (in words)” value is reported as “not decreased”. For the same molecule, the “content by HPLC” value in data set [2] (1 week) came to 249.60 ppm; in data set [2] (2 weeks), 253.45 ppm; in data set [2] (Initial), 252.8 ppm. The “content relative to initial” value in data set [2] (1 week) was 98.7%; in data set [2] (2 weeks), 100.3%.
Turning to kobophenol A, the “content by HPLC” value in data set [2] (1 week) worked out at 115.6 ppm; in data set [2] (2 weeks) it was 103.6 ppm; in data set [2] (Initial), 121.4 ppm. For the same molecule, the “content relative to initial” value in data set [2] (1 week) is 95.2%; in data set [2] (2 weeks), 85.3%.
In the case of `OC[C@H]1O[C@@H](Oc2ccc(O)cc2)[C@H](O)[C@@H](O)[C@@H]1O` [Arbutin, arbutin], the “Inhibition rate of tyrosinase activity (%)” value came out at 21.2% in data set [3] (sample concentration 0.05%), 38.4% in data set [3] (sample concentration 0.1%) and 78.7% in data set [3] (sample concentration 0.2%). The inhibition at 100 µg/mL in data set [4] (100 μg/ml) came to 63.5%. In addition, the inhibition at 200 µg/mL in data set [4] (200 μg/ml) stood at 75.7%. The inhibition at 100 µM in data set [1] (Mus musculus, B16-F1, 100 μM, read-out: inhibition rate of melanin production induced by α-MSH) came out at 13%. Further, in data set [1] (Mus musculus, B16-F1, 200 μM, read-out: inhibition rate of melanin production induced by α-MSH), the inhibition at 200 µM was found to be 44%. Further, the inhibition at 400 µM in data set [1] (Mus musculus, B16-F1, 400 μM, read-out: inhibition rate of melanin production induced by α-MSH) turned out to be 73%. Moreover, the pIC50 in data set [1] (Mus musculus, B16-F1) was 3.62.
